Results published in ChEMBL document CHEMBL4190360, “Exploring Heteroaryl-pyrazole Carboxylic Acids as Human Carbonic Anhydrase XII Inhibitors” (ACS Med Chem Lett, 2017).
pKi: −log10 of the molar value.

What was measured:
Carbonic anhydrase 9 = Carbonic anhydrase 9 (Homo sapiens, UniProt Q16790)
Description: Inhibition of recombinant human carbonic anhydrase 9 catalytic domain preincubated for 15 mins prior to testing measured for 10 to 100 secs by phenol red-based stopped-flow CO2 hydration assay

HEK293 [1] = test: Growth inhibition of HEK293 cells after 24 hrs by MTS assay; assay type: cell-based; conditions: human, hek293, 24 h
SH-SY5Y [2] = test: Antiproliferative activity against CoCl2-simulated human SH-SY5Y cells assessed as reduction in cell viability at 30 uM pretreated for 24 hrs followed by CoCl2 addition measured after overnight incubation by MTS assay; assay type: functional
[3] = (§1) Growth inhibition of HEK293 cells at 1 to 100 uM after 24 hrs by MTS assay relative to control; assay type: cell-based; conditions: human, HEK293 cells; read-out: GI
PC-3 = test: Growth inhibition of human PC3 cells at 1 to 100 uM after 24 hrs by MTS assay relative to control; assay type: functional
SH-SY5Y [4] = test: Growth inhibition of human SH-SY5Y cells at 1 to 100 uM after 24 hrs by MTS assay relative to control; assay type: functional
HEK293 [5] = test: as §1; assay type: cell-based; conditions: human, hek293, 24 h, 100 µM

SMILES: CCCCn1cc(-c2cc(C(=O)O)[nH]n2)c2ccccc21
- pKi (Carbonic anhydrase 9): 5.35

SMILES: CCn1cc(-c2cc(C(=O)OC)n(C)n2)c2ccccc21
- pKi (Carbonic anhydrase 9): 5.52

SMILES: COC(=O)c1cc(-c2cn(C(C)C)c3ccccc23)n[nH]1
- growth inhibition (GI) (HEK293 [1]): Dose-dependent effect
- Activity (SH-SY5Y [2]): 40%
- pKi (Carbonic anhydrase 9): 5.13
- inhibition at 24 h, 100 µM [3]: 70%
- growth inhibition (GI) (PC-3): 85%
- growth inhibition (GI) (SH-SY5Y [4]): 85%

SMILES: CCn1cc(-c2cc(C(=O)OC)[nH]n2)c2ccccc21
- pKi (Carbonic anhydrase 9): 6.33
- growth inhibition (GI) (HEK293 [5]): Non-Toxic
- growth inhibition (GI) (PC-3): 85%
- growth inhibition (GI) (SH-SY5Y [4]): 85%

SMILES: CCCCn1cc(-c2cc(C(=O)OC)[nH]n2)c2ccccc21
- pKi (Carbonic anhydrase 9): 5.10

SMILES: CCn1cc(-c2cc(C(=O)O)n(C)n2)c2ccccc21
- pKi (Carbonic anhydrase 9): 5.54

SMILES: CC(C)n1cc(-c2cc(C(=O)O)[nH]n2)c2ccccc21
- pKi (Carbonic anhydrase 9): 4.72
- growth inhibition (GI) (HEK293 [5]): Non-Toxic
- growth inhibition (GI) (PC-3): 85%
- growth inhibition (GI) (SH-SY5Y [4]): 85%

SMILES: CCn1cc(-c2cc(C(=O)O)n[nH]2)c2ccccc21
- growth inhibition (GI) (HEK293 [5]): Non-Toxic
- growth inhibition (GI) (PC-3): 85%
- growth inhibition (GI) (SH-SY5Y [4]): 85%
